Consider two molecules from patent US11639368B2, “Method for preventing and treating hyperpermeability” (Apeptico Forschung UND E[…], priority 2009, dated 2023).

Series [1] deals with influenza A virus. As to the kind of experiment: Course of disease in mice with viral lung infection. It is filed as in vivo, BALB/c mice. The note with it: influenza A infected mice. The procedure:
The following animal study groups were examined in respect of the effect of peptide SEQ ID No. 1 on a viral lung infection:
Group 1. Negative control (PBS via nasal).
Group 2. Positive control (infection with approx. 2,000 units of influenza A virus via nasal).
Group 3. Test group (infection with approx. 2,000 units of influenza A virus via nasal, as well as intratracheal administration of 10 μg of peptide SEQ ID No. 1).
In each group, 6 BALB/c mice were used.
The following treatment scheme was followed:
Group 1: Administration of PBS via nasal.
Group 2: Infection of the mice with influenza virus A via nasal.
Group 3: Infection of the mice with influenza virus A via nasal and administration of peptide SEQ ID No. 1.
Days of treatment 0, 2, 4, 6, 8:
Group 1: Intratracheal administration of PBS.
Group 2: Intratracheal administration of PBS.
Group 3: Intratracheal administration of peptide SEQ ID No. 1.
Days of treatment 0 to 10:
Daily observation of body temperature, body weight and survival rate of the test animals.

Series [2] relates to myosin light chain. Kind of series: Phosphorylation of the myosin light chain (protein blot, densitometry). It counts as cell-based. The note with it: human endothelial lung cells; for increase in the content of phosphorylated myosin light chain by listeriolysin: 250 ng/ml of listeriolysin, 50 μg/ml of peptide. From the text: Human endothelial cells of the lungs, isolated from capillaries of the lungs, were acquired from the company Lonza.
(§1) The microbial toxins listeriolysin (LLO) and pneumolysin (PLY) were acquired from the University of Giessen.
Human endothelial cells of the lungs, isolated from capillaries of the lungs, were cultivated in a manner common in the laboratory.
Determination of Phosphorylation of the Myosin Light Chain
For the determination of phosphorylation of the myosin light chain and the influence of the peptide SEQ ID No. 1 on the phosphorylation, the previously cultivated human endothelial cells of the lungs were washed with phosphate buffer pH 7.4, which contained 1 mM orthovanadate. The cell contents was lysed by incubation of the cells with a solution of 20 mM tris buffer (pH 7.4), 150 mM mol/1 of NaCl, 1 mM EDTA, 1 mM EGTA, 1% Triton X-100, 2.5 mM sodiumpyrophosphate, 1 mM betaglycerophosphate, 1 mM sodiumvanadate, 1 μg/ml of leupeptine, 1 mM phenylmethylsulfonylfluoride. In addition, the cells were digested with ultrasound. The cell lysate was centrifuged in order to obtain the soluble components. The soluble cell lysate was subsequently applied to denaturing sodium dodecyl sulfate polyacrylamide gel electrophoresis in a manner common in the laboratory, and the proteins were separated according to their masses. Thereafter, the proteins were transferred onto nitrocellulose membranes. The protein blots were treated with a solution of 0.1% Tween 20 and 5% dry milk powder for 1 hour in a manner common in the laboratory. Subsequently, the protein blots were incubated with antibodies directed against either the myosin light chain or the phosphorylated myosin light chain.
In order to make either the myosin light chain or the phosphorylated myosin light chain visible, the antibodies were made visible on diagnostic film using chemiluminescence in a manner common in the laboratory. The signal strength was determined with densitometry, and the ratio of myosin light chain to phosphorylated myosin light chain was determined.

Series [3] can be described thus: Lavage-induced large animal ARDS model. It is filed as in vivo, pigs. The procedure: Material & methods: With the consent of the competent animal protection commission, lung damage was induced in two pigs (25 kg) under general anesthesia by surfactant depletion (four-time bronchoalveolar lavage, 30 ml/kg of body weight each). Subsequently, 1 mg/kg of body weight AP301 (peptide SEQ ID No. 1) was endotracheally applied. Animal 1 (1) received a deep tracheal injection of the overall dose, while for animal 2 (2), nebulization of the same dosage over 30 min was performed. Thereafter, there was a five-hour ventilation period. The arterial oxygen partial pressure (paO2) was recorded using an intra-aortic real-time measuring probe (FOXY, Ocean Optics, USA) validated in advance. Spirometry and hemodynamics were permanently registered as well as measurements with the PiCCO technology performed at half-hour intervals.
The ventilation settings were constantly kept in the non-protective range (Pmax 40 mbar, tidal volume≥10 ml/kg of body weight, PEEP≤10 mbar, frequency 25-35/min) in order to avoid therapeutic effects. […] 162.8 mmHg (1) or 224.6 mmHg (2), respectively. With nebulization of AP301, this occurred delayed compared to the deep tracheal application, however, it was more pronounced.

Series [4] has as its system hyperpermeability of the lungs of mice. Kind of series: Pneumolysin-induced hyperpermeability and acute lung damage in mice (Evans blue, leukocytes in bronchoalveolar liquid). The note with it: 250 ng of pneumolysin and 50 μg of peptide per mouse intratracheal, 5.5 hours.
In series [5] the test system is arterial endothelial cells. Kind of series: Reactive oxygen molecules in endothelial cells under oxygen deficiency, measured by EPR. It counts as cell-based. The note with it: oxygen deficiency (0.1% oxygen, hypoxic gas mixture), 50 μg/ml of peptide. The procedure: Cell Culture of Endothelial Cells
For the generation of reactive oxygen molecules, arterial endothelial cells were cultivated in an oxygen-deficient gas mixture of 0.1% oxygen, 5% […] and 94.9% nitrogen (hypoxic gas mixture). In control experiments, the gas concentrations were 21% oxygen, 5% […] and 74% nitrogen (normoxic gas mixture).
After 90 minutes under oxygen-deficient conditions, the endothelial cells were cultivated with 21% oxygen for a further 30 minutes. Thereafter, 20 μl of a solution consisting of 20 uM 1-hydroxy-3-methoxycarbonyl-2,2,5,5-tetramethylpyrrolidine HCl (CHM), 20 μM DPBS, 25 μM desferrioxamine and 5 μM diethyldithiocarbamate as well as 2 μl of DMSO were added to the cells.
Trypsinization of the Cells.
Following cell culture, the cells were individualized in a manner common in the laboratory by adding a trypsin solution. The endothelial cells were washed and suspended in 35 μl of a solution consisting of DPBS and 25 μM desferrioxamine and 5 μM diethyldithiocarbamate.
Measurement of the Electron Paramagnetic Resonance (EPR)
The determination of the electron paramagnetic resonance (EPR), also called electron spin resonance, serves the investigation of paramagnetic substances, e.g. for detection of unpaired electrons in reactive oxygen molecules (radicals of the oxygen). […]

Series [6] concerns human endothelial cells of the lungs. As to the kind of experiment: Toxin-induced hyperpermeability, transendothelial electric resistance (ECIS), endothelial cells. It counts as cell-based. The note with it: 500 ng/ml of listeriolysin, 50 μg/ml of peptide.
Series [7] has as its system Human epithelial cells of the lungs of type H441. As to the kind of experiment: Toxin-induced hyperpermeability, electric resistance (ECIS), epithelial cells. The note with it: 1 μg/ml of listeriolysin, 50 μg/ml of peptide. It is filed as cell-based. The protocol: (§2) Human epithelial cells of the lungs of type H441 were acquired from the company ATTC.
as §1
Epithelial cells of the lungs of type H441 were cultivated in a manner common in the laboratory in a commercial RPMI 1640 medium with the additives 2 mM L-glutamine, 1.5 g/l of sodium carbonate, 4.5 g/l of glucose, 10 mM HEPES buffer pH 7.4, 10% bovine serum. The ECIS experiments took place in serum-free medium.
In order to cause hyperpermeability, i.e. injuries of the endothelial cells and epithelial cells, the human epithelial cells of the lungs as well as the human endothelial cells of the lungs were cultivated in a manner common in the laboratory up to the formation of a continuous cell layer, and subsequently, the toxins listeriolysin or pneumolysin, respectively, were added.

Series [8] concerns epithelial sodium channel (ENaC). Kind of series: Expression of the epithelial sodium channel by real-time PCR in H441 cells. It counts as cell-based, human. The note with it: 50 μg/ml of peptide, H441 epithelial cells of the lungs. The protocol:
as §2
Epithelial cells of the lungs of type H441 were cultivated in a manner common in the laboratory in a commercial RPMI 1640 medium with the additives 2 mM L-glutamine, 1.5 g/l of sodium carbonate, 4.5 g/l of glucose, 10 mM HEPES buffer pH 7.4, 10% bovine serum.
Verification of the Expression of the Epithelial Sodium Channel
In the cultivated epithelial cells, the expression of the sodium channel (ENaC) was determined by means of “real-time PCR”.
On the technique in general: Quantitative PCR measures a nucleic acid by following its amplification.

Entries after “also recorded” stand apart in the source; their conditions may differ.

As for `C[C@@H]1NC(=O)CNC(=O)[C@H](CCC(=O)O)NC(=O)[C@@H]2CCCN2C(=O)[C@H]([C@@H](C)O)NC(=O)[C@H](CCC(=O)O)NC(=O)[C@H](CCCNC(=N)N)NC(=O)[C@H](CCC(N)=O)NC(=O)CNC(=O)[C@@H](N)CSSC[C@@H](C(=O)O)NC(=O)[C@H](Cc2ccc(O)cc2)NC(=O)[C@H](Cc2c[nH]c3ccccc23)NC(=O)[C@@H]2CCCN2C(=O)[C@H](CCCCN)NC(=O)[C@H](C)NC(=O)[C@H](CCC(=O)O)NC1=O` [peptide SEQ ID No. 1, CGQRETPEGAEAKPWYC], in series [1] (10 μg of peptide intratracheal on days 0, 2, 4, 6, 8, within 10 days), the “reduction of body weight” value is on record as “approx. 10%”. In series [1] (10 μg of peptide intratracheal, after 7 days), the “body temperature after 7 days” value amounted to 35 °C. In series [1] (10 μg of peptide intratracheal, fraction of test animals, 10 days), the “mortality after 10 days” value is listed as “⅓”. For the same molecule, the “body temperature subsequently (after day 7)” value in series [1] (10 μg of peptide intratracheal, recovery after day 7) amounted to 37 °C. Moreover, in series [1] (in words), the “decrease in body weight (overall conclusion)” value was “reduces the decrease”, the “lowering of the body temperature (overall conclusion)” value is listed as “reduces the lowering” and the “survival rate (overall conclusion)” value was “clearly increased”. The “increase in the content of phosphorylated myosin light chain by listeriolysin” value in series [2] is listed as “inhibits”. The “content of phosphorylated myosin light chain, peptide alone” value in series [2] (50 μg/ml of peptide without toxin) is on record as “no influence”. Also, the “paO2 increase, max.” value in series [3] (animal 1, 1 mg/kg deep tracheal injection) was 162.8 mmHg. The “paO2 increase, max.” value in series [3] (animal 2, 1 mg/kg nebulization over 30 min) is on record as 224.6 mmHg. Also, the “duration of continuous improvement of oxygenation” value in series [3] (both pigs, 1 mg/kg endotracheally) was “about 1.5 hours”. Also, the “reduction of the extra-vascular lung water compared to the initial value following surfactant depletion” value in series [3] (pigs, 1 mg/kg endotracheally, PiCCO) is 15.8-52.5%. Further, in series [3] (pigs, 1 mg/kg of body weight endotracheally), the “undesired hemodynamic effects during application of the drug” value is on record as “no undesired hemodynamic effects”. Further, in series [4], the “number of leukocytes in the bronchoalveolar liquid” value is “clear reduction; also recorded: clearly less leukocytes” and the “toxin-mediated development of hyperpermeability (Evans blue dye in lung tissue)” value is given as “inhibition”. In addition, in series [5], the “formation of reactive oxygen molecules by the endothelial cells” value is “no reactive oxygen molecules are formed”. Also, the “hyperpermeability caused by the toxin listeriolysin (electric resistance)” value in series [6] is “inhibited”. The “hyperpermeability caused by the toxin listeriolysin (electric resistance)” value in series [7] is “inhibited”. Further, the “expression of the sodium channel ENaC (mRNA)” value in series [8] is “triplication; also recorded: substantial increase”.

In the case of “CGQREAPAGAAAKPWYC [peptide SEQ ID No. 3, reference compound]”, the “increase in the content of phosphorylated myosin light chain by listeriolysin” value in series [2] is “no influence”. Also, the “formation of reactive oxygen molecules by the endothelial cells” value in series [5] is listed as “does not result in an inhibition”. Further, the “expression of the sodium channel ENaC (mRNA)” value in series [8] was “no substantial increase”.
